This series can be described thus: in vivo. The following applies: sheep, sc. The protocol:
Sheep (approximately 100 kg) were housed at SUNY Stony Brook Health Sciences Center. Animals were anesthetized with acepromazine/thiopental sodium. A suspense of diketopiperazine microparticle/sCT (10.04 mg/mL in 0.9% saline) was instilled in each lung of each sheep. A solution of sCT (10 mg/mL in 0.9% saline) was administered by subcutaneous injection to control animals. An intravenous catheter was placed in the cephalic vein of each anesthetized animal for blood sampling.
The following dosing solutions were prepared on the day of the experiment. The volume of the dose delivered was calculated based on the actual weight of the animal as described below.
Blood samples were drawn at the following time points: −5, 0 (predose), 1, 3, 5, 10, 15, 30, 45, 60, 90 minutes, 2, 4, and 6 hours. […]
Plasma sCT concentration was determined using radioimmunoassay (Research and Diagnostic Antibodies, Berkeley, Calif., catalog #K-1235).
The pharmacokinetics of sCT in sheep was determined after lung instillation of a formulation of sCT in diketopiperazine microparticle (2.47% by weight sCT) at a sCT dose of 100 μg/kg. […]
The truncated AUC (0 to 6 hours) was calculated for each animal using the trapezoidal rule. The bioavailability (F %) for each animal was calculated from the ration of the AUCs for the pulmonary and subcutaneous administrations.

As to `CC(C)C[C@H](NC(=O)[C@H](CCCCN)NC(=O)CNC(=O)[C@H](CC(C)C)NC(=O)[C@@H](NC(=O)[C@@H]1CSSC[C@H](N)C(=O)N[C@@H](CO)C(=O)N[C@@H](CC(N)=O)C(=O)N[C@@H](CC(C)C)C(=O)N[C@@H](CO)C(=O)N[C@@H]([C@@H](C)O)C(=O)N1)C(C)C)C(=O)N[C@@H](CO)C(=O)N[C@@H](CCC(N)=O)C(=O)N[C@@H](CCC(=O)O)C(=O)N[C@@H](CC(C)C)C(=O)N[C@@H](Cc1c[nH]cn1)C(=O)N[C@@H](CCCCN)C(=O)N[C@@H](CC(C)C)C(=O)N[C@@H](CCC(N)=O)C(=O)N[C@H](C(=O)N[C@@H](Cc1ccc(O)cc1)C(=O)N1CCC[C@H]1C(=O)N[C@@H](CCCNC(=N)N)C(=O)N[C@H](C(=O)N[C@@H](CC(N)=O)C(=O)N[C@H](C(=O)NCC(=O)N[C@@H](CO)C(=O)NCC(=O)N[C@H](C(=O)N1CCC[C@H]1C(N)=O)[C@@H](C)O)[C@@H](C)O)[C@@H](C)O)[C@@H](C)O` [sCT, salmon calcitonin], the Tmax came out at 2 h. Under “100 ug/kg”, this molecule showed an area under the curve AUC(0-t) of 38.8 ng·h/mL.

A word on the Tmax: it is the time from dosing to the highest level. For orientation: AUC(0-t) means exposure summed from dosing to a finite time, without extrapolation to infinity. A higher AUC(0-t) goes with more exposure.

The record behind these values is US8394414B2, “Method for drug delivery to the pulmonary system” (MannKind Corporation, priority 1995, dated 2013).
